Like-named read-outs stand apart in the source and are kept apart here.
Tests used:
EGFR = target: T1, EGFR (Homo sapiens, UniProt P00533); assay: EGFR in-cell Western (ICW) screening protocol (EGFR inhibition assay); assay type: cell-based; set-up: ICW 1 / ICW 2 / ICW Avg: unit not given here; settings: for ICW assay: Table 10, % Inhibition of EGF dependent EGFR phosphorylation in A431 cells, compound 125 μM in assay; for ICW Avg / ICW 1 / ICW 2: ICW assay; for ICW Avg: average of runs 1 and 2; for ICW 1: run 1; for ICW 2: run 2
T1 construct: host or cells: A431
T1 sequence (P00533 25-1210): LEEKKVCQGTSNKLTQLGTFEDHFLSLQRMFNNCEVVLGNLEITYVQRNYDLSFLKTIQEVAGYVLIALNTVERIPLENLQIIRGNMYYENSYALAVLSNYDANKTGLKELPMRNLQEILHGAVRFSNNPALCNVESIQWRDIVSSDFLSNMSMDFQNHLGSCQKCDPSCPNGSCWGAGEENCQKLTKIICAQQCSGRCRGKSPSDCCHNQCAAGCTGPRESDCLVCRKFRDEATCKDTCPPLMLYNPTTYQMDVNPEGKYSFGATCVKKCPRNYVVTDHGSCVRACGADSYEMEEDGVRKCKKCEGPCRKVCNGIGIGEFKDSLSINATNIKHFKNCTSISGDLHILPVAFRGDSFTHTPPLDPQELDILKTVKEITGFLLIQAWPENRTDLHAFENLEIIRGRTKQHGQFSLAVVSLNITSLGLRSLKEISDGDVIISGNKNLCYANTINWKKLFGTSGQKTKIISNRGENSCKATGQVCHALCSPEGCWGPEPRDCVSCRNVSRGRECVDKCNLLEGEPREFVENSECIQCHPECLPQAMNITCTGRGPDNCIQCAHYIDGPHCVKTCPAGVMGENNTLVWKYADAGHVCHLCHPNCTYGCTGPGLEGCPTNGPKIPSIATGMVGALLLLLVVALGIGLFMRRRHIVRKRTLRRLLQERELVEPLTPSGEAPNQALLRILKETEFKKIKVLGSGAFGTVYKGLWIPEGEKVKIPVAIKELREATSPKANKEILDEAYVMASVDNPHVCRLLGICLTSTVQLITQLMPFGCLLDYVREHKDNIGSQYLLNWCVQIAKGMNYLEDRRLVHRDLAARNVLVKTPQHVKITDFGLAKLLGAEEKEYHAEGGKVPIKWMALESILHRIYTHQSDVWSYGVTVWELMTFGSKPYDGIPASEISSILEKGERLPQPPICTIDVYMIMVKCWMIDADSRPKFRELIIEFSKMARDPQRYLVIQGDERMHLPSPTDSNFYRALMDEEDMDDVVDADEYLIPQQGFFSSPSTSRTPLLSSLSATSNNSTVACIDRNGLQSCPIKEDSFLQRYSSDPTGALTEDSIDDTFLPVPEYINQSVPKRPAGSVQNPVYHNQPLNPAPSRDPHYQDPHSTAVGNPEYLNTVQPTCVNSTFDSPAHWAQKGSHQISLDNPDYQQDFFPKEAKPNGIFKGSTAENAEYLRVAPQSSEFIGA
Procedure, shortened: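 In-cell Western read-out: fixed A431 cells were co-stained for total EGFR and phospho-EGFR (Tyr1173; some runs Tyr1045). Before fixation, cells were serum-starved for 2 h, exposed to compound for 4 h, then given EGF for 10 min, usually at 10 ng/ml final (6.6 or 12.5 ng/ml in some runs).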

[1] = test system: epithelial carcinoma A431 cell line; assay: MTT Cell Proliferation Assay, A431 cells; assay type: cell-based; settings: for IC50: Homo sapiens; for MTT Assay IC50(A431/MDBK): ratio in parentheses: ratio MDBK IC50 / A431 IC50 (selectivity)
Procedure, shortened: (§1)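 Each concentration ran in quadruplicate across duplicate plates, with compounds serially diluted in DMSO and delivered at 0.5% DMSO in 0.5% FBS medium for 3 days.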

MDBK line = assay: MTT Cell Proliferation Assay, MDBK cells; assay type: cell-based, bovine; settings: MDBK; for IC50: Bos taurus
Procedure, shortened: as §1

[2] = A-431, 72 h, Table 10, first of x/y(ratio): A431, three day treatment, unit not printed (doses in μM), read-out: MTT assay (first value)
[3] = 72 h, Table 10, second of x/y(ratio): MDBK, three day treatment, unit not printed (doses in μM), read-out: MTT assay (second value)
[4] = A-431, A431 cells, first value of cell, read-out: MTT Assay IC50(A431/MDBK): A431
[5] = MDBK cells, second value of cell, read-out: MTT Assay IC50(A431/MDBK): MDBK

Row | SMILES | ICW assay (EGFR) | IC50 [1, 2] | IC50 (MDBK line; [3]) | further results
1 | COc1ccc(NC(=S)Nc2ccc(S(=O)(=O)Nc3cc(Cl)cc(Cl)c3)cc2)cc1OC [AD4-12481] | 42.006 | 10.4 µM | 11 µM | 
2 | COc1cc(NC(=S)Nc2ccc(S(=O)(=O)Nc3cc(Cl)cc(Cl)c3)cc2)cc(OC)c1 [AD4-12482] | 28.3382 | 6.54 µM | 6.05 µM | 
3 | COc1ccc(C)cc1NC(=S)Nc1ccc(S(=O)(=O)Nc2ccc(Cl)cc2)cc1 [AD4-12485] | 33.3993 | 6.98 µM | 7.19 µM | 
4 | Cc1ccccc1NS(=O)(=O)c1ccc(NC(=S)Nc2cccc(C(F)(F)F)c2)cc1 [AD4-12487] | 84.5602 | 6.45 µM | 5.5 µM | 
5 | O=S(=O)(Nc1ccc(Cl)cc1)c1ccc(NC(=S)Nc2cccc(Cl)c2)cc1 [AD4-12494] | 112.965 | 5.64 µM | 5.71 µM | 
6 | COc1ccc(C)cc1NC(=S)Nc1ccc(S(=O)(=O)Nc2cc(Cl)cc(Cl)c2)cc1 [AD4-12499] | 26.0767 | 6.99 µM | 6.58 µM | 
7 | CCCCc1ccc(NC(=S)Nc2ccc(S(=O)(=O)Nc3ccc(Cl)cc3)cc2)cc1 [AD4-12501] | 71.3823 | 4.06 µM | 4.06 µM | 
8 | COc1ccccc1NC(=S)Nc1ccc(S(=O)(=O)Nc2ccc(Cl)cc2)cc1 [AD4-12502] | 25.1182 | 6.97 µM | 5.46 µM | 
9 | CC(C)c1ccc(NC(=S)Nc2ccc(S(=O)(=O)Nc3ccc(Cl)cc3)cc2)cc1 [AD4-12503] | 79.4624 | 4.05 µM | 5.43 µM | 
10 | O=S(=O)(Nc1ccc(Cl)cc1)c1ccc(NC(=S)Nc2ccc(Br)cc2)cc1 [AD4-12504] | 118.46 | 11.1 µM | 15.6 µM | 
11 | Cc1ccc(NC(=S)Nc2ccc(S(=O)(=O)Nc3ccc(Cl)cc3)cc2)cc1Cl [AD4-12505] | 93.3284 | 5.69 µM | 6.02 µM | 
12 | O=S(=O)(Nc1cc(Cl)cc(Cl)c1)c1ccc(NC(=S)Nc2cccc(C(F)(F)F)c2)cc1 [AD4-12509] | 140.975 | 5.49 µM | 5.24 µM | 
13 | Cc1cc(C)cc(NC(=S)Nc2ccc(S(=O)(=O)Nc3ccc(Cl)cc3)cc2)c1 [AD4-12512] | 28.9126 | 6.4 µM | 5.83 µM | 
14 | COc1ccc(NC(=S)Nc2ccc(S(=O)(=O)Nc3ccccc3C)cc2)c(OC)c1 [AD4-12517] | 31.5308 | 30.4 µM | 20 µM | 
15 | CCOc1ccccc1NC(=S)Nc1ccc(S(=O)(=O)Nc2ccc(Cl)cc2)cc1 [AD4-12521] | 45.7824 | 6.99 µM | 6.54 µM | 
16 | Cc1ccc(NC(=S)Nc2ccc(S(=O)(=O)Nc3cc(Cl)cc(Cl)c3)cc2)cc1Cl [AD4-12522] | 123.893 | 6.2 µM | 5.33 µM | 
17 | COc1ccc(NC(=S)Nc2ccc(S(=O)(=O)Nc3ccc(Cl)cc3)cc2)cc1OC [AD4-12525] | 34.1311 | 14.8 µM | 12.2 µM | 
18 | COc1ccc(NC(=S)Nc2ccc(S(=O)(=O)Nc3ccccc3C)cc2)cc1OC [AD4-12527] | 31.9587 | 26.9 µM | 20 µM | 
19 | O=S(=O)(Nc1cc(Cl)cc(Cl)c1)c1ccc(NC(=S)Nc2ccc(Cl)c(Cl)c2)cc1 [AD4-12528] | 123.946 | 5.43 µM | 5.3 µM | 
20 | CCOc1ccc(NC(=S)Nc2ccc(S(=O)(=O)Nc3cc(Cl)cc(Cl)c3)cc2)cc1 [AD4-12529] | 63.9249 | 6.35 µM | 6.47 µM | 
21 | COc1ccccc1NS(=O)(=O)c1ccc(NC(=S)Nc2ccc(OC)c(OC)c2)cc1 [AD4-12537] | 30.7051 | 35.4 µM | 38.6 µM | 
22 | COC(=O)c1sc2cc(NC(=S)Nc3ccc(S(=O)(=O)Nc4c(C)cc(C)cc4C)cc3)ccc2c1Cl [AD4-12560] | 42.3275 | 8.88 µM | 5.23 µM | 
23 | COc1ccc(NS(=O)(=O)c2ccc(NC(=S)Nc3ccccc3C(F)(F)F)cc2)cc1 [AD4-12577] | 29.4151 | 6.62 µM | 5.92 µM | 
24 | O=S(=O)(Nc1ccccc1)c1ccc(NC(=S)Nc2ccc(Cl)cc2)cc1 [AD4-12783] | 57.4272 | 7 µM | 7.62 µM | 

Row | SMILES | ICW assay (EGFR) | IC50 [1, 2] | IC50 (MDBK line; [3]) | further results
25 | CCC(C)c1ccc(NC(=S)Nc2ccc(S(=O)(=O)Nc3ccccc3)cc2)cc1 (centres unmarked) [AD4-12798] | 49.531 | 4.74 µM | 5.69 µM | 
26 | CC1CCc2cc(F)ccc2N1S(=O)(=O)c1ccc(NC(=S)Nc2ccc(Br)cc2)cc1 (centres unmarked) [AD4-12813] | 26.1431 | 11.8 µM | 13.6 µM | 
27 | CC(C)c1ccc(NC(=S)Nc2ccc(S(=O)(=O)Nc3ccccc3)cc2)cc1 [AD4-12820] | 47.471 | 5.98 µM | 5.93 µM | 
28 | O=S(=O)(Nc1ccccc1)c1ccc(NC(=S)Nc2ccc(Cl)cc2Cl)cc1 [AD4-12822] | 51.4082 | 6.92 µM | 7.04 µM | 
29 | CCCCc1ccc(NC(=S)Nc2ccc(S(=O)(=O)Nc3ccccc3)cc2)cc1 [AD4-12823] | 30.8167 | 4.07 µM | 4.06 µM | 
30 | CC(=O)c1cccc(NC(=S)Nc2ccc(S(=O)(=O)N3c4ccc(F)cc4CCC3C)cc2)c1 (centres unmarked) [AD4-12825] | 26.7866 | 6.78 µM | 5.46 µM | 
31 | CC1CCc2cc(F)ccc2N1S(=O)(=O)c1ccc(NC(=S)Nc2ccc(Cl)c(Cl)c2)cc1 (centres unmarked) [AD4-12827] | 45.9206 | 6.49 µM | 6.4 µM | 
32 | CC1CCc2cc(F)ccc2N1S(=O)(=O)c1ccc(NC(=S)Nc2ccc3c(c2)OCO3)cc1 (centres unmarked) [AD4-12828] | 32.6456 | 26.6 µM | 63.4 µM | 
33 | Cc1ccc(Cl)cc1NC(=S)Nc1ccc(S(=O)(=O)N2c3ccc(F)cc3CCC2C)cc1 (centres unmarked) [AD4-12829] | 46.4407 | 37 µM | 37.3 µM | 
34 | CC1CCc2cc(F)ccc2N1S(=O)(=O)c1ccc(NC(=S)Nc2ccc(Br)cc2Cl)cc1 (centres unmarked) [AD4-12832] | 29.02 | 7.71 µM | 16.3 µM | 
35 | O=S(=O)(Nc1ccccc1)c1ccc(NC(=S)Nc2ccc(Cl)c(Cl)c2)cc1 [AD4-12833] | 115.634 | 5.94 µM | 5.96 µM | 
36 | O=S(=O)(Nc1ccccc1)c1ccc(NC(=S)Nc2cccc(C(F)(F)F)c2)cc1 [AD4-12835] | 116.579 | 6.15 µM | 5.89 µM | 
37 | CC1CCc2cc(F)ccc2N1S(=O)(=O)c1ccc(NC(=S)Nc2ccc(F)c(Cl)c2)cc1 (centres unmarked) [AD4-12836] | 46.1658 | 9.32 µM | 8.43 µM | 
38 | CC1CCc2cc(F)ccc2N1S(=O)(=O)c1ccc(NC(=S)Nc2cccc(F)c2)cc1 (centres unmarked) [AD4-12837] | 35.1542 | 6.28 µM | 5.68 µM | 
39 | O=S(=O)(Nc1ccccc1)c1ccc(NC(=S)Nc2cccc(Cl)c2)cc1 [AD4-12842] | 80.8965 | 6.72 µM | 5.55 µM | 
40 | Cc1ccc(NC(=S)Nc2ccc(S(=O)(=O)Nc3ccccc3)cc2)cc1Cl [AD4-12844] | 112.768 | 6.8 µM | 6.13 µM | 
41 | CC1CCc2cc(F)ccc2N1S(=O)(=O)c1ccc(NC(=S)Nc2ccc(F)cc2)cc1 (centres unmarked) [AD4-12850] | 42.2628 | 31.8 µM | 35.8 µM | 
42 | O=S(=O)(Nc1ccccc1)c1ccc(NC(=S)Nc2ccc(F)c(Cl)c2)cc1 [AD4-12851] | 118.637 | 6.51 µM | 5.39 µM | 
43 | CC1CCc2cc(F)ccc2N1S(=O)(=O)c1ccc(NC(=S)Nc2cccc(Cl)c2Cl)cc1 (centres unmarked) [AD4-12853] | 36.92 | 8.76 µM | 7.51 µM | 
44 | CCc1ccc(NC(=S)Nc2ccc(S(=O)(=O)Nc3ccccc3)cc2)cc1 [AD4-12854] | 38.7055 | 6.64 µM | 8.19 µM | 
45 | O=S(=O)(Nc1ccccc1)c1ccc(NC(=S)Nc2cc(Cl)ccc2Cl)cc1 [AD4-12855] | 25.0542 | 6.83 µM | 6.25 µM | 
46 | Cc1ccc2nc(Nc3nc(=O)c(Cc4ccccc4)c(C)[nH]3)nc(C)c2c1 [compound 11294] |  |  |  | ICW Avg (EGFR): 33.47; ICW 1 (EGFR): 29.81; ICW 2 (EGFR): 37.13; IC50 [1, 4]: 6.43 µM; MTT Assay IC50(A431/MDBK): ratio in parentheses [1]: 3.08; IC50 (MDBK line; [5]): 19.8 µM
47 | Cc1ccc2[nH]c(Nc3nc(C)cc(-c4ccccc4)n3)nc(=O)c2c1 [compound 11315] |  |  |  | ICW Avg (EGFR): 49.58; ICW 1 (EGFR): 48.33; ICW 2 (EGFR): 50.82; MTT Assay IC50(A431/MDBK): ratio in parentheses [1]: very selective; MTT Assay, MDBK percent at a single concentration (MDBK line; at 100 μM): 20%
48 | Cc1cc(C)nc(Nc2nc(-c3ccccc3)c3cc(Cl)ccc3n2)n1 [compound 11316] |  |  |  | ICW Avg (EGFR): 50.76; ICW 1 (EGFR): 47.95; ICW 2 (EGFR): 53.57; IC50 [1, 4]: 44.4 µM; MTT Assay IC50(A431/MDBK): ratio in parentheses [1]: 0.45; IC50 (MDBK line; [5]): 19.9 µM

— patent US20140179681A1, “METHODS AND COMPOSITIONS OF TARGETED DRUG DEVELOPMENT” (priority 2010, published 2014)
